Source: patent US10512665B2, “Methods and compositions related to inhibition of viral entry” (University of Utah Research Foundation, priority 2007, dated 2019)
Where two headings read alike, the source gives them in different places.

Columns and labels:
[1] = tested on: JRFL; test: Viral infectivity (pseudovirion entry) assay, primary strain JRFL; format: cell-based, HIV-1
Procedure: While HXB2 is a commonly used lab-adapted HIV-1 isolate, it is often more vulnerable to inhibition than primary clinical HIV-1 isolates. […] Bianchi 2005).
All studies were done using the HXB2 strain unless otherwise specified. Viral infectivity was measured essentially as previously described (Hamburger 2005) with several modifications. 8 μg/mL DEAE-Dextran was used as a fusion enhancer in all assays. Media was changed 22-26 h following infection. […] Fits were weighted by the absolute s.e.m. from quadruplicate points with the minimum allowable error set to 1%.

[2] = tested on: HXB2 strain; test: Single-cycle viral infectivity (viral entry) assay, HXB2 strain
Procedure: All studies were done using the HXB2 strain unless otherwise specified. […] 8 μg/mL DEAE-Dextran was used as a fusion enhancer in all assays. Media was changed 22-26 h following infection. […] Fits were weighted by the absolute s.e.m. from quadruplicate points with the minimum allowable error set to 1%.

[3] = JRFL pseudovirion entry, Table 4, read-out: IC50 (nM) (JRFL)
[4] = read-out: IC50 (nM) (HXB2), HXB2 pseudovirion entry, Table 4
[5] = read-out: IC50 (μM) (HXB2), HXB2 viral entry, Table 3
[6] = JRFL, read-out: IC50 against primary isolate JRFL
[7] = read-out: IC50, inhibition of viral entry, HXB2

| Molecule | IC50 [1, 3] | IC50 [2, 4] | IC50 [2, 5] | further results |
| --- | --- | --- | --- | --- |
| HPCDYPEWQWLCRLGK [PIE14] | 1050 nM | 33.1 nM | – | – |
| KKGACDYPEWRWLCAA [2K-PIE2] | – | – | 2570 nM | less potent than PIE2 ([2]; HXB2, compared with PIE2): ~2 fold |
| KGACDYPEWQWLCAA [PIE7] | 24000 nM | 620 nM | 620 nM | reduction in potency against JRFL ([1]; JRFL compared with HXB2): ~40 fold; improvement of potency on addition of TAK779 ([1]; JRFL, addition of 100 nM TAK779): more than 3 fold; IC50 [1, 6]: 24400 nM; more potent than D10-p5 ([2]; HXB2, compared with D10-p5): ~15 fold; inhibitory activity in combination with Fuzeon ([2]; against viral entry, with Fuzeon): at least additive; IC50 [2, 7]: 620 nM |
| GACDYPEWQWLCAAGKK [PIE7-GKK] | 19100 nM | 382 nM | – | – |
| KGACDYPEWRWLCAA [PIE2] | – | – | – | IC50 [2, 7]: 1320 nM |
| HPCDYPEWQWLCKLGK [PIE13] | 1470 nM | 41.3 nM | – | – |
| KKGACESPEWRWLCAA [2K-PIE1] | – | – | 2220 nM | – |
| KKGACELLGWEWAWLCAA [D10-p5, reference compound] | – | – | 9510 nM | inhibition of infection of cells ([2]; infectivity assay): inhibit infection of cells |
| GACDYPEWQWLCAAGK [PIE7-GK] | 15800 nM | 389 nM | – | inhibitory potency compared in words [2]: slightly enhanced potency |
| HACDYPEWQWLCELGK [PIE15] | 1450 nM | 66.7 nM | – | – |
| Cc1ccc(-c2ccc3c(c2)C=C(C(=O)Nc2ccc(C[N+](C)(C)C4CCOCC4)cc2)CCC3)cc1 [TAK779, reference compound] | – | – | – | IC90 ([1]; CCR5 co-receptor inhibitor, JRFL entry assay): 100 nM |
| HPCDYPEWQWLCELGK [PIE12] | 578 nM | – | – | – |
| KGACDYKEWQWLCAA [PIE8] | – | – | – | IC50 [2, 7]: 1680 nM |
| PEG-(KGACDYPEWQWLCAA)2 [PEG-(PIE7)2] | – | 1.9 nM | 1.9 nM | IC50 [1, 6]: 2300 nM; inhibitory potency compared in words [2]: comparable to Fuzeon; improvement in IC50 over the corresponding monomer ([2]; HXB2, dimer vs monomer): ~325 fold; IC50 ([2]; read-out: IC50 of dimeric inhibitors, HXB2): 1.9 nM |
| KGACDYPEWRWLCAAA [PIE2-AAA] | – | – | 1440 nM | inhibitory potency compared in words [2]: nearly indistinguishable from the potency of PIE2 |
| KGACDYPEWQWLCAAGK [K-PIE7-GK] | 14800 nM | – | – | – |
| enfuvirtide [Fuzeon, reference compound] | 5 nM | 3.7 nM | 3.7 nM | – |
